Article PMC9161374 (Science Translational Medicine, 2022)
Where “and” joins values, the source holds several entries; their conditions need not be identical. Equal values may be shown once.

Legend:
[1] = system: SARS-CoV-2 (Delta, B.1.617.2); experiment: microbe, parasite or virus in culture; type: cell-based; conditions: for % Inhibition: delta
[2] = system: SARS-CoV-2 replicon system (pBAC-SARS-CoV-2-Replicon-Luc); experiment: microbe, parasite or virus in culture; type: cell-based; conditions: Severe acute respiratory syndrome coronavirus 2, HEK-293T, 60 h
[3] = system: SARS-CoV-2 (B.1) in Huh7 cells; experiment: Anti-SARS-CoV-2 activity in Huh7 cells (viral yield by qRT-PCR); type: cell-based; conditions: B.1, MOI 0.05, 48 h
[4] = system: SARS-CoV-2 (B.1); experiment: Anti-SARS-CoV-2 activity in Vero E6 cells (viral yield by qRT-PCR); type: cell-based
[5] = system: SARS-CoV-2 (Beta, B.1.351); experiment: microbe, parasite or virus in culture; type: cell-based; conditions: for % Inhibition: beta
[6] = CCK-8 cell viability assay; type: cell-based, African green monkey; conditions: African green monkey; Vero E6 cells, 48 h, CCK8
How it was run: (§1)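 Vero E6 cells, 20,000/well, exposed to compound at 0–200 μM (0, 0.01, 0.1, 1, 5, 10, 50, 75, 100, 200 μM) for 48 h; viability read by CCK-8 and expressed as percentage versus drug concentration, mean ± SD.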

[7] = system: Vero E6 cells; experiment: CCK-8 cell viability assay; type: cell-based, African green monkey; conditions: individual replicate values, Fig.S4
How it was run: as §1

N#C[C@@]1(c2ccc3c(N)ncnn23)O[C@H](COC(=O)c2ccccc2)[C@@H](O)[C@H]1O [ATV013]
EC50 ([1]; Severe acute respiratory syndrome coronavirus 2, Vero C1008, 48 h, read-out: EC50 in Vero E6 cells, SARS-CoV-2 (Delta, B.1.617.2)): 965 nM
inhibition at 0.01 µM ([1]; Severe acute respiratory syndrome coronavirus 2, Vero C1008, delta, 0.01 uM, Vero E6, replicates): 0%
inhibition at 0.1 µM ([1]; Severe acute respiratory syndrome coronavirus 2, Vero C1008, delta, 0.1 uM, Vero E6, replicates): 0%
inhibition at 0.25 µM ([1]; Severe acute respiratory syndrome coronavirus 2, Vero C1008, delta, 0.25 uM, Vero E6, replicates): 0%
inhibition at 1 µM ([1]; Severe acute respiratory syndrome coronavirus 2, Vero C1008, delta, 1 uM, Vero E6, replicates): 50.4%
inhibition at 2 µM ([1]; Severe acute respiratory syndrome coronavirus 2, Vero C1008, delta, 2 uM, Vero E6, replicates): 93.4%
inhibition at 5 µM ([1]; Severe acute respiratory syndrome coronavirus 2, Vero C1008, delta, 5 uM, Vero E6, replicates): 96.1%
inhibition at 10 µM ([1]; Severe acute respiratory syndrome coronavirus 2, Vero C1008, delta, 10 uM, Vero E6, replicates): 99.7%
inhibition at 50 µM ([1]; Severe acute respiratory syndrome coronavirus 2, Vero C1008, delta, 50 uM, Vero E6, replicates): 100%
EC90 ([1]; Severe acute respiratory syndrome coronavirus 2, Vero C1008, read-out: EC90 (Confidence 95%), Vero-E6, Delta B.1.617.2): 1410 nM
% Inhibition ([1]; 0.01 uM, Vero E6, replicates): 0%
% Inhibition ([1]; 0.1 uM, Vero E6, replicates): 0%
% Inhibition ([1]; 0.25 uM, Vero E6, replicates): 0%
% Inhibition ([1]; 0.5 uM, Vero E6, replicates): 0.1843% and 0%
% Inhibition ([1]; 1 uM, Vero E6, replicates): 60.4565%
% Inhibition ([1]; 2 uM, Vero E6, replicates): 90.993%
% Inhibition ([1]; 5 uM, Vero E6, replicates): 93.9334%
% Inhibition ([1]; 10 uM, Vero E6, replicates): 98.4346%
% Inhibition ([1]; 50 uM, Vero E6, replicates): 99.9058%
EC50 ([2]; read-out: EC50 (Confidence 95%), replicon): 497 nM
EC90 ([2]; read-out: EC90 (Confidence 95%), replicon): 1140 nM
EC50 ([3]; Severe acute respiratory syndrome coronavirus 2, Huh-7, read-out: EC50 (Confidence 95%) in Huh7 cells): 964 nM
EC90 ([3]; Severe acute respiratory syndrome coronavirus 2, Huh-7, read-out: EC90 (Confidence 95%) in Huh7 cells): 1320 nM
% Inhibition ([4]; 0.1 μM, replicates, sheet Fig.S3): 0%
% Inhibition ([4]; 0.5 μM, replicates, sheet Fig.S3): 0%
% Inhibition ([4]; 1 μM, replicates, sheet Fig.S3): 54.9033%
% Inhibition ([4]; 2 μM, replicates, sheet Fig.S3): 83.4601%
% Inhibition ([4]; 5 μM, replicates, sheet Fig.S3): 91.8254%
% Inhibition ([4]; 10 μM, replicates, sheet Fig.S3): 91.2053%
% Inhibition ([4]; B.1, 0.01 uM, Vero E6, replicates): 0%
% Inhibition ([4]; B.1, 0.1 uM, Vero E6, replicates): 0%
% Inhibition ([4]; B.1, 0.25 uM, Vero E6, replicates): 0%
% Inhibition ([4]; B.1, 0.5 uM, Vero E6, replicates): 0%
% Inhibition ([4]; B.1, 1 uM, Vero E6, replicates): 0%
% Inhibition ([4]; B.1, 5 uM, Vero E6, replicates, 5 µM): 99.7536%
% Inhibition ([4]; B.1, 10 uM, Vero E6, replicates, 10 µM): 99.9918%
% Inhibition ([4]; B.1, 50 uM, Vero E6, replicates, 50 µM): 99.9922%
inhibition at 0.1 µM ([4]; Severe acute respiratory syndrome coronavirus 2, Vero C1008, 0.1 μM, replicates, sheet Fig.S3): 0%
inhibition at 0.5 µM ([4]; Severe acute respiratory syndrome coronavirus 2, Vero C1008, 0.5 μM, replicates, sheet Fig.S3): 0%
inhibition at 1 µM ([4]; Severe acute respiratory syndrome coronavirus 2, Vero C1008, 1 μM, replicates, sheet Fig.S3): 62%
inhibition at 2 µM ([4]; Severe acute respiratory syndrome coronavirus 2, Vero C1008, 2 μM, replicates, sheet Fig.S3): 83.8%
inhibition at 5 µM ([4]; Severe acute respiratory syndrome coronavirus 2, Vero C1008, 5 μM, replicates, sheet Fig.S3): 93.6%
inhibition at 10 µM ([4]; Severe acute respiratory syndrome coronavirus 2, Vero C1008, 10 μM, replicates, sheet Fig.S3): 93.5%
inhibition at 0.01 µM ([4]; Severe acute respiratory syndrome coronavirus 2, Vero C1008, B.1, 0.01 uM, Vero E6, replicates): 0%
inhibition at 0.1 µM ([4]; Severe acute respiratory syndrome coronavirus 2, Vero C1008, B.1, 0.1 uM, Vero E6, replicates): 0%
inhibition at 0.25 µM ([4]; Severe acute respiratory syndrome coronavirus 2, Vero C1008, B.1, 0.25 uM, Vero E6, replicates): 0%
inhibition at 0.5 µM ([4]; Severe acute respiratory syndrome coronavirus 2, Vero C1008, B.1, 0.5 uM, Vero E6, replicates): 0%
inhibition at 1 µM ([4]; Severe acute respiratory syndrome coronavirus 2, Vero C1008, B.1, 1 uM, Vero E6, replicates): 0%
inhibition at 5 µM ([4]; Severe acute respiratory syndrome coronavirus 2, Vero C1008, B.1, 5 uM, Vero E6, replicates): 99.5%
inhibition at 10 µM ([4]; Severe acute respiratory syndrome coronavirus 2, Vero C1008, B.1, 10 uM, Vero E6, replicates): 100%
inhibition at 50 µM ([4]; Severe acute respiratory syndrome coronavirus 2, Vero C1008, B.1, 50 uM, Vero E6, replicates): 100%
EC90 ([4]; Severe acute respiratory syndrome coronavirus 2, Vero C1008, read-out: EC90 (Confidence 95%)): 2870 nM
EC50 ([4]; Severe acute respiratory syndrome coronavirus 2, Vero C1008, MOI 0.05, 48 h): 2260 nM
EC50 ([5]; Severe acute respiratory syndrome coronavirus 2, Vero C1008, 48 h, read-out: EC50 in Vero E6 cells, SARS-CoV-2 (Beta, B.1.351)): 2430 nM
inhibition at 0.01 µM ([5]; Severe acute respiratory syndrome coronavirus 2, Vero C1008, beta, 0.01 uM, Vero E6, replicates): 0%
inhibition at 0.1 µM ([5]; Severe acute respiratory syndrome coronavirus 2, Vero C1008, beta, 0.1 uM, Vero E6, replicates): 0%
inhibition at 0.25 µM ([5]; Severe acute respiratory syndrome coronavirus 2, Vero C1008, beta, 0.25 uM, Vero E6, replicates): 0%
inhibition at 0.5 µM ([5]; Severe acute respiratory syndrome coronavirus 2, Vero C1008, beta, 0.5 uM, Vero E6, replicates): 0%
inhibition at 1 µM ([5]; Severe acute respiratory syndrome coronavirus 2, Vero C1008, beta, 1 uM, Vero E6, replicates): 0%
inhibition at 2 µM ([5]; Severe acute respiratory syndrome coronavirus 2, Vero C1008, beta, 2 uM, Vero E6, replicates): 23.7%
inhibition at 5 µM ([5]; Severe acute respiratory syndrome coronavirus 2, Vero C1008, beta, 5 uM, Vero E6, replicates): 99.7%
inhibition at 10 µM ([5]; Severe acute respiratory syndrome coronavirus 2, Vero C1008, beta, 10 uM, Vero E6, replicates): 99.9%
inhibition at 50 µM ([5]; Severe acute respiratory syndrome coronavirus 2, Vero C1008, beta, 50 uM, Vero E6, replicates): 99.9%
EC90 ([5]; Severe acute respiratory syndrome coronavirus 2, Vero C1008, read-out: EC90 (Confidence 95%), Vero-E6, Beta B.1.351): 3090 nM
% Inhibition ([5]; 0.01 uM, Vero E6, replicates): 0%
% Inhibition ([5]; 0.1 uM, Vero E6, replicates): 0%
% Inhibition ([5]; 0.25 uM, Vero E6, replicates): 0%
% Inhibition ([5]; 0.5 uM, Vero E6, replicates): 0%
% Inhibition ([5]; 1 uM, Vero E6, replicates): 0%
% Inhibition ([5]; 2 uM, Vero E6, replicates): 12.3832%
% Inhibition ([5]; 5 uM, Vero E6, replicates): 99.5222%
% Inhibition ([5]; 10 uM, Vero E6, replicates): 99.9634%
% Inhibition ([5]; 50 uM, Vero E6, replicates): 99.9455%
CC50 at 48 h [6]: > 50000 nM
cell viability (% of control) ([7]; 1 μM compound, 1 µM): 66.6435 % of control and 71.881 % of control and 81.6609 % of control
cell viability (% of control) ([7]; 2 μM compound, 2 µM): 62.1939 % of control and 100.479 % of control and 98.8104 % of control
cell viability (% of control) ([7]; 5 μM compound, 5 µM): 79.1116 % of control and 101.73 % of control and 106.643 % of control
cell viability (% of control) ([7]; 10 μM compound, 10 µM): 79.4361 % of control and 86.4349 % of control and 92.6458 % of control
cell viability (% of control) ([7]; 20 μM compound, 20 µM): 76.9332 % of control and 94.4535 % of control and 115.728 % of control
cell viability (% of control) ([7]; 50 μM compound, 50 µM): 73.9991 % of control and 102.436 % of control and 88.29 % of control
